{
  "source": "PubChem BioAssay AID1963841",
  "about": "(Molecular Pharmacology Branch, DTP, NCI, 2024)",
  "system": "439559-082-T-J2-PDC spheroid viability",
  "test": "Anticancer human tumor 439559-082-T-J2-PDC patient-derived colon adenocarcinoma cell line growth inhibition [POLQ]",
  "settings": "spheroids with HUVEC and MSC; for IC50: curve of first compound; for viability, T/C: stronger effect = lower value",
  "experimental": "Multicellular complex tumor spheroid response to Polymerase (POL) inhibitors (novobiocin, ART-558, RP6685) in combination with a variety of drugs and investigational agents in selected tumor cell lines\nThe POL inhibitors (novobiocin, ART-558, and RP6685) were evaluated both individually and in combination with standard of care and investigational anticancer small molecules within a complex spheroid model of solid tumors. . Complex spheroids include a stromal component modeled by human endothelial cells (HUVEC) and fibroblasts modeled by human mesenchymal stem cells (MSCs). The concentration ranges selected for each drug and investigational agent were based upon clinically achievable concentrations if the clinical Cmax of the agent was known.\nCompounds. The drugs and investigational agents: novobiocin (NSC847541), ART-558 (NSC835418), RP-6685 (NSC848927), peposertib (NSC802822), ceralasertib (NSC780249), elimusertib (NSC800525), camonsertib (NSC841442), AZD-1390 (NSC803789), olaparib (NSC753686), talazoparib (NSC767125), rucaparib (NSC756644), sotorasib (NSC818433), MRTX-1133 (NSC836407), SN-38 (NSC673596), topotecan (NSC609699), epotoside (NSC141540), doxorubicin (NSC123127), gemcitabine (NSC613327), 5-fluorouracil (NSC19893), paclitaxel (NSC125973), vemurafenib (NSC761431), MSA-2 (NSC828583), SN-011 (NSC837082), adavosertib (NSC754352), prexasertib (NSC758257), carboplatin (NSC241240) and oxaliplatin (NSC266046), were obtained from the National Cancer Institute (NCI) Developmental Therapeutics Program Chemical Repository (21). The FDA-approved anticancer drug set is available from the Developmental Therapeutics Program at https://dtp.cancer.gov/organization/dscb/obtaining/. […] The stock solutions were prepared in dimethyl sulfoxide (DMSO, Sigma-Aldrich, St. Louis, MO, cat. D2650), except for the platinum compounds which were prepared in saline (Quality Biological, Gaithersburg, MD, cat. 114-055-101), at 800-fold the tested concentration and stored at -70 degrees C prior to their use. All drugs and investigational agents were tested over a range starting from a high concentration at or near the clinical Cmax and decreasing in half-log increments. If the clinical Cmax for an agent had not been determined, the highest concentration tested was 10 microM, except for SN-38, which was tested at a high concentration of 1 microM.\nCell Culture. All cells were maintained in an incubator at 37 degrees C and 5% CO2 with 95% humidity. The PDC lines were cultured according to standard operating procedures established by the NCI PDMR (https://pdmr.cancer.gov). Table 3 of the manuscript, lists the cell lines along with the number of the three cell types plated to form the mct-spheroids and media for tumor cell growth. After thawing, all PDC lines, except 997537-175-T-J1-PDC and 415267-285-R-J2-PDC, were cultured in Matrigel-coated flasks prepared with a working solution of 1X Ham's F-12 nutrient mix, without supplementation (Thermo Fisher Scientific, cat. 11765054), 100 U/mL penicillin-streptomycin (Thermo Fisher Scientific, cat. 15140122), and 2.5% Matrigel (Corning Inc., Corning, NY, cat. 354248) for the first three passages. The two PDC lines 997537-175-T-J1-PDC and 415267-285-R-J2-PDC were cultured on uncoated flasks. The 857933-349-R-J2-PDC line was cultured in 6C/Colon 1B media containing advanced DMEM/F-12 (Thermo Fisher Scientific, cat. 12634028), 10 mM HEPES (Thermo Fisher Scientific, cat. 15630080), 1X GlutaMAX supplement (Thermo Fisher Scientific, cat. 35050061), 0.1 mg/mL primocin (InvivoGen, San Diego, CA, cat. ant-pm-2), 10% defined fetal bovine serum, heat inactivated (HyClone Laboratories Inc., Logan, UT, cat. SH30070.03HI), 50% L-WRN conditioned media (ATCC, cat. CRL-3276), 1.25 mM N-Acetyl-L-cysteine (Sigma-Aldrich, cat. A9165), 10 mM nicotinamide (Sigma-Aldrich, cat. N0636), 1X B-27 supplement (Thermo Fisher Scientific, cat. 17504044), 1X N-2 supplement (Thermo Fisher Scientific, cat. […]",
  "data": [
    {"compound": "CNCc1ccc(-c2[nH]c3cc(F)cc4c3c2CCNC4=O)cc1", "note": "+ Nc1ccc(C#CCN(C(=O)Cc2ncc(C(F)(F)F)cc2C(F)(F)F)c2ccc(F)cc2)nn1;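 note: spheroids exposed to compounds for seven days before readout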;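 for viability, T/C: 100% = DMSO vehicle control viability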", "values": [
      {"measurement": "IC50", "setting": "second compound 0.0316 µM", "result": "> 10", "unit": "µM"},
      {"measurement": "IC50", "setting": "second compound 0.1 µM", "result": "> 10", "unit": "µM"},
      {"measurement": "IC50", "setting": "second compound 0.316 µM", "result": "> 10", "unit": "µM"},
      {"measurement": "IC50", "setting": "second compound 1 µM", "result": "> 10", "unit": "µM"},
      {"measurement": "IC50", "setting": "second compound 3.16 µM", "result": "> 10", "unit": "µM"},
      {"measurement": "IC50", "setting": "second compound 10 µM", "result": "> 10", "unit": "µM"},
      {"measurement": "viability, T/C", "setting": "second compound 0.0316 µM, first compound 0.0316 µM", "result": 91.6, "unit": "%"},
      {"measurement": "viability, T/C", "setting": "second compound 0.0316 µM, first compound 0.1 µM", "result": 106, "unit": "%"},
      {"measurement": "viability, T/C", "setting": "second compound 0.0316 µM, first compound 0.316 µM", "result": 102, "unit": "%"},
      {"measurement": "viability, T/C", "setting": "second compound 0.0316 µM, first compound 1 µM", "result": 87.2, "unit": "%"},
      {"measurement": "viability, T/C", "setting": "second compound 0.0316 µM, first compound 3.16 µM", "result": 116, "unit": "%"},
      {"measurement": "viability, T/C", "setting": "second compound 0.0316 µM, first compound 10 µM", "result": 97.7, "unit": "%"},
      {"measurement": "viability, T/C", "setting": "second compound 0.1 µM, first compound 0.0316 µM", "result": 100, "unit": "%"},
      {"measurement": "viability, T/C", "setting": "second compound 0.1 µM, first compound 0.1 µM", "result": 95.3, "unit": "%"},
      {"measurement": "viability, T/C", "setting": "second compound 0.1 µM, first compound 0.316 µM", "result": 97.5, "unit": "%"},
      {"measurement": "viability, T/C", "setting": "second compound 0.1 µM, first compound 1 µM", "result": 101, "unit": "%"},
      {"measurement": "viability, T/C", "setting": "second compound 0.1 µM, first compound 3.16 µM", "result": 102, "unit": "%"},
      {"measurement": "viability, T/C", "setting": "second compound 0.1 µM, first compound 10 µM", "result": 110, "unit": "%"},
      {"measurement": "viability, T/C", "setting": "second compound 0.316 µM, first compound 0.0316 µM", "result": 109, "unit": "%"},
      {"measurement": "viability, T/C", "setting": "second compound 0.316 µM, first compound 0.1 µM", "result": 108, "unit": "%"},
      {"measurement": "viability, T/C", "setting": "second compound 0.316 µM, first compound 0.316 µM", "result": 87.4, "unit": "%"},
      {"measurement": "viability, T/C", "setting": "second compound 0.316 µM, first compound 1 µM", "result": 96.4, "unit": "%"},
      {"measurement": "viability, T/C", "setting": "second compound 0.316 µM, first compound 3.16 µM", "result": 105, "unit": "%"},
      {"measurement": "viability, T/C", "setting": "second compound 0.316 µM, first compound 10 µM", "result": 101, "unit": "%"},
      {"measurement": "viability, T/C", "setting": "second compound 1 µM, first compound 0.0316 µM", "result": 101, "unit": "%"},
      {"measurement": "viability, T/C", "setting": "second compound 1 µM, first compound 0.1 µM", "result": 97.4, "unit": "%"},
      {"measurement": "viability, T/C", "setting": "second compound 1 µM, first compound 0.316 µM", "result": 105, "unit": "%"},
      {"measurement": "viability, T/C", "setting": "second compound 1 µM, first compound 1 µM", "result": 90.5, "unit": "%"},
      {"measurement": "viability, T/C", "setting": "second compound 1 µM, first compound 3.16 µM", "result": 107, "unit": "%"},
      {"measurement": "viability, T/C", "setting": "second compound 1 µM, first compound 10 µM", "result": 122, "unit": "%"},
      {"measurement": "viability, T/C", "setting": "second compound 3.16 µM, first compound 0.0316 µM", "result": 100, "unit": "%"},
      {"measurement": "viability, T/C", "setting": "second compound 3.16 µM, first compound 0.1 µM", "result": 112, "unit": "%"},
      {"measurement": "viability, T/C", "setting": "second compound 3.16 µM, first compound 0.316 µM", "result": 111, "unit": "%"},
      {"measurement": "viability, T/C", "setting": "second compound 3.16 µM, first compound 1 µM", "result": 97.4, "unit": "%"},
      {"measurement": "viability, T/C", "setting": "second compound 3.16 µM, first compound 3.16 µM", "result": 110, "unit": "%"},
      {"measurement": "viability, T/C", "setting": "second compound 3.16 µM, first compound 10 µM", "result": 98.2, "unit": "%"},
      {"measurement": "viability, T/C", "setting": "second compound 10 µM, first compound 0.0316 µM", "result": 94.8, "unit": "%"},
      {"measurement": "viability, T/C", "setting": "second compound 10 µM, first compound 0.1 µM", "result": 104, "unit": "%"},
      {"measurement": "viability, T/C", "setting": "second compound 10 µM, first compound 0.316 µM", "result": 110, "unit": "%"},
      {"measurement": "viability, T/C", "setting": "second compound 10 µM, first compound 1 µM", "result": 102, "unit": "%"},
      {"measurement": "viability, T/C", "setting": "second compound 10 µM, first compound 3.16 µM", "result": 104, "unit": "%"},
      {"measurement": "viability, T/C", "setting": "second compound 10 µM, first compound 10 µM", "result": 105, "unit": "%"}
    ]}
  ]
}
